Measured values published in paper PMC2716805, “Canine Plasminogen: Spectral Responses to Changes in 6-Aminohexanoate and Temperature” (2007).

Target: T1, canine plasminogen (DPGN) (Canis lupus, UniProt P80009)
T1 construct: gene PLG; intact plasminogen purified from dog blood (samples showing conversion to lys-plasminogen or plasmin discarded)
Assay: titration followed by 4th derivative near-UV absorption spectroscopy (R-values)
Type: binding

T1 sequence (P80009 with tags, fused parts or gaps): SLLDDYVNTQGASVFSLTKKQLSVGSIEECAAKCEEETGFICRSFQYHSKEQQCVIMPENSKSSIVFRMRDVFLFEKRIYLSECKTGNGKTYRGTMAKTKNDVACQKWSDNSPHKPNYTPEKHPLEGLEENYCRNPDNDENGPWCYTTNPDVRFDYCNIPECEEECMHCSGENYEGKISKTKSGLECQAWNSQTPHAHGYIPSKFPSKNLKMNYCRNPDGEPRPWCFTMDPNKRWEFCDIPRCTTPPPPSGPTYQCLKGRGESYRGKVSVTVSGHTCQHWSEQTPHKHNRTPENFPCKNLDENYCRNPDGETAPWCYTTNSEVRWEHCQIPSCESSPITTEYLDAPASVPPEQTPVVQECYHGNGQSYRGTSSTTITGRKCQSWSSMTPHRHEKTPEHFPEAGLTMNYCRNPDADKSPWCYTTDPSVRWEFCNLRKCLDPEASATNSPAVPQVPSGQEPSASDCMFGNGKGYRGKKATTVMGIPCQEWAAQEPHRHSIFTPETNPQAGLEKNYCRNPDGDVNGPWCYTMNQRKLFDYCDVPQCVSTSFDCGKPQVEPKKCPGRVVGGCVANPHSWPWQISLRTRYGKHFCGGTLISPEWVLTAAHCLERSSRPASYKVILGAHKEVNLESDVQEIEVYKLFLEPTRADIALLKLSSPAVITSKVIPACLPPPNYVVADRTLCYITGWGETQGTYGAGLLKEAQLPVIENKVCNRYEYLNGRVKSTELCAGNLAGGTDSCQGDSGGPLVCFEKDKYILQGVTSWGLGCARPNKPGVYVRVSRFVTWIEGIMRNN

NCCCCCC(=O)O [6-AH, 6-aminohexanoate]
Kd: ~1000 nM
